From article PMC7073229, “Novel Quinoline Compounds Active in Cancer Cells through Coupled DNA Methyltransferase Inhibition and Degradation” (Cancers, 2020)
Read-outs that look alike come from different tables or passages of the source.

Experiments:
[1] = tested on: U937 AML cells; assay: Antiproliferative activity, MTT; format: cell-based; conditions: Homo sapiens, U-937, 48 h treatment, read-out: Antiproliferative Activity (IC50 ± SD) U937
Description: (§1) U937 histiocytic lymphoma, HL60 acute promyelocytic leukemia, H1299 lung adenocarcinoma, MCF7 breast carcinoma, HT1080 fibrosarcoma, M14 melanoma, HeLa epithelial cervix carcinoma and peripheral blood B lymphocyte AHH1 human cell lines were obtained from the Deutsche Sammlung für Mikroorganismen and Zellkulturen (DSZM, Braunschweig, Germany) and were maintained in RPMI 1640 medium contained 10% fetal bovine serum (FBS), 2 mM L-glutamine, and antibiotics in a humidified atmosphere with 5% CO2 at 37 °C. HCT116 (ATCC, VA, USA) cells were propagated in Dulbecco’s modified Eagle medium (DMEM) (Euroclone, Milan, Italy) with 10% fetal bovine serum (FBS; Euroclone, Milan, Italy), 2 mM L-glutamine (Euroclone, Milan, Italy), and antibiotics (100 U/mL penicillin, 100 µg/mL streptomycin) (Euroclone, Milan, Italy). The experiments were performed with early (3–20) cell passages. Cell lines were treated with compounds at the indicated concentrations in the exponential growth phase.
(§2) Then, increasing concentrations of different compounds (ranging from 0.01 to 100 μM) were added, and cell proliferation was evaluated by a MTT assay after 48 h. Cells exposed to DMSO were used as control. The effect of compounds was evaluated using the CellTiter-Glo luminescent cell viability assay (Promega, Madison, WI, USA) according to the manufacturer’s instructions. For HCT116, 5 × 10^4 cells/well were plated in 24-well plate and treated, in duplicate, with compounds at several concentrations for 24 and 48 h of induction. After treatments, MTT solution was added for 3 h at 0.5 mg/mL, the obtained crystals were dissolved in DMSO (Sigma-Aldrich, Milan, Italy), and the absorbance was read at a wavelength of 570 nm with reader TECAN M-200. All the experiments were performed in triplicate and repeated at least three times.
(§3) IC50 values of compounds against cellular viability were determined by using nonlinear regression fitting curves with GraphPad Prism 8. The t-test used for statistical analyses was performed with GraphPad Prism 8. All the tests were one-tailed and a p-value < 0.05 was considered statistically significant.

[2] = tested on: HT1080 human fibrosarcoma; assay: Antiproliferative activity, MTT; format: cell-based; conditions: HT-1080, 48 h treatment, read-out: Antiproliferative Activity (IC50 ± SD) HT1080
Description: as §1, §2, §3

[3] = tested on: HCT116 human colorectal carcinoma; assay: Antiproliferative activity, MTT; format: cell-based; conditions: HCT-116, 48 h treatment, read-out: Antiproliferative Activity (IC50 ± SD) HCT116
Description: as §1, §2, §3

[4] = tested on: M14 human melanoma; assay: Antiproliferative activity, MTT; format: cell-based; conditions: 48 h treatment, read-out: Antiproliferative Activity (IC50 ± SD) M14
Description: as §1, §2, §3

[5] = tested on: HeLa epithelial cervix carcinoma; assay: Antiproliferative activity, MTT; format: cell-based; conditions: Homo sapiens, 48 h treatment, read-out: Antiproliferative Activity (IC50 ± SD) HeLa
Description: as §1, §2, §3

[6] = tested on: HL60 APL cells; assay: Antiproliferative activity, MTT; format: cell-based; conditions: Homo sapiens, HL-60, 48 h treatment, read-out: Antiproliferative Activity (IC50 ± SD) HL60
Description: as §1, §2, §3

[7] = tested on: H1299 human non-small cell lung carcinoma; assay: Antiproliferative activity, MTT; format: cell-based; conditions: 48 h treatment, read-out: Antiproliferative Activity (IC50 ± SD) H1299
Description: as §1, §2, §3

[8] = tested on: KRAS21R G-quadruplex DNA; assay: FRET melting assay, G-quadruplex DNA; format: binding
Description: (§4) Experimental procedure for Fluorescence Resonance Energy Transfer (FRET) melting assay Oligonucleotides labeled at 5’ with FAM (6-carboxyfluorescein) as donor fluorophore and TAMRA (6 - carboxytetramethylrhodamine) at 3’ as the acceptor fluorophore were purchased from STAB VIDA (Portugal). Each oligonucleotide was initial ly diluted to 100 µM in water (Molecular Biology Reagent, Sigma). Stock solutions of 20 µM and subsequent dilutions were made with FRET buffer (60 mM KCl, potassium cacodylate, pH 7.4). Tagged oligonucleotides at 0.4 µM were annealed by heating at 90 -95 °C for 10 min, followed by slow cooling to room temperature. St ock solutions of compounds (1 mM) were prepared in 10% DMSO. Subsequent dilutions were performed using FRET buffer. Annealed DNA (50 µL) and test compound solutions (50 µL) were distributed across 96-well RT-PCR plates (PCR-96-FLT-C, Axygen, Inc). Fluorescence readings (performed in a 7300 RT -PCR equipment from Applied Biosystems) were taken at intervals of 0.5 °C in the range 31 –95 °C, with the temperature being maintained for 30 seconds prior to each reading. Experiments were performed in triplicate. Fina l analysis of the data was carried out with GraphPad Prism v.5.0 (GraphPad Software Inc., La Jolla, CA, USA).
(§5) The advanced curve-fitting function in GraphPad Prism (nonlinear regression fit) was used for calculation of ΔTm values. Only results with fitting r2 values > 0.75 (std error < 0.25) were considered.
(§6) Table S2. Synthetic oligonucleotides used in FRET experiments.

[9] = tested on: F21T G-quadruplex DNA; assay: FRET melting assay, G-quadruplex DNA; format: binding
Description: as §4, §5, §6

[10] = tested on: U937 cells; assay: Sub-G1 peak, cell cycle flow cytometry; format: cell-based, human; conditions: U937, 1 µM; for effect on sub-G1 peaks vs untreated cells: 24 and 48 h
Description: Cell cycle analysis was performed on 5 × 10^5 fixed cells resuspended in a RNase A (3 mg/mL) and propidium iodide (PI) solution (1 mg/mL). Samples were analyzed with a C6 Accuri BD (Becton Dickinson & Co., San Jose, CA, USA). The percentage of apoptosis was measured analyzing sub-G1 peaks. Apoptotic cell death was also evaluated by using annexin V–fluorescein isothiocyanate (FITC) apoptosis kit (BD Bioscience) and assayed according to the manufacturer’s instructions. Cells double-stained for both annexin V and PI were analyzed by flow cytometry. PI was used in conjunction with annexin V–FITC to distinguish cells in the earlier stages of apoptosis (annexin V-FITC positive, PI negative) from those in later stages of apoptosis or that were already dead (annexin V–FITC positive, PI positive). Percentage of cells positive for caspase-3 activation was evaluated by Active Caspase-3 Apoptosis Kit (BD biosciences, Milan, Italy) according to the manufacturer’s instructions.

[11] = tested on: MCF-7 human breast adenocarcinoma; assay: Antiproliferative activity, MTT; format: cell-based; conditions: MCF7, 48 h treatment, read-out: Antiproliferative Activity (IC50 ± SD) MCF-7
Description: as §1, §2, §3

Structure (SMILES) | IC50 [1] [nM] | IC50 [2] [nM] | IC50 [3] [nM] | IC50 [4] [nM] | IC50 [5] [nM] | IC50 [6] [nM] | IC50 ([7]; Homo sapiens, NCI-H1299, 48 h) [nM] | KRAS ∆Tm ([8]; 5 µM) | KRAS ∆Tm ([8]; 10 µM) | F21T ∆Tm ([9]; 5 µM) | F21T ∆Tm ([9]; 10 µM) | effect on sub-G1 peaks vs untreated cells [10] | IC50 [11] [nM] | IC50 [7] [nM] | percentage of sub-G1 peak ([10]; 48 h) [%]
O=C(Nc1cccc(NC(=O)c2ccc(Nc3ccnc4ccccc34)cc2)c1)OCc1ccccc1 [Compound 4c] | 1200 ± 200 | 3900 ± 800 | 17700 ± 2400 | 4500 ± 800 | 7400 ± 1200 | 300 ± 70 | 6900 ± 900 | 1.0 ºC | 2.6 ºC | 0.8 ºC | 1.5 ºC | no | – | – | –
O=C(Nc1ccc(NC(=O)c2cccc(Nc3ccnc4ccccc34)c2)cc1)OCc1ccccc1 [Compound 4a] | 500 ± 80 | 19500 ± 2800 | 23900 ± 2600 | 69000 ± 8100 | 77000 ± 7900 | 300 ± 60 | 45000 ± 4100 | 2.5 ºC | 4.6 ºC | 0 ºC | 4.3 ºC | very low | – | – | –
O=C(Nc1cccc(Nc2ccnc3ccccc23)c1)c1cccc(Nc2ccnc3ccccc23)c1 [Compound 2b] | 1500 ± 100 | 2700 ± 400 | 1500 ± 300 | 4700 ± 600 | 2000 ± 300 | 1600 ± 200 | 5300 ± 900 | 1.0 ºC | 7.7 ºC | 2.8 ºC | 5.0 ºC | – | 300 ± 60 | – | –
O=C(Nc1cccc(Nc2ccnc3ccccc23)c1)c1ccc(Nc2ccnc3ccccc23)cc1 [Compound 2c] | 1500 ± 100 | 2600 ± 600 | 2300 ± 500 | 3800 ± 700 | 4200 ± 800 | 1900 ± 300 | 14000 ± 1800 | 0 ºC | 3.4 ºC | 1 ºC | 1.2 ºC | – | 2200 ± 400 | – | –
O=C(Nc1ccc(Nc2ccnc3ccccc23)cc1)c1cccc(Nc2ccnc3ccccc23)c1 [Compound 2a] | 700 ± 90 | 500 ± 90 | 1000 ± 200 | 500 ± 80 | 140 ± 40 | 200 ± 30 | 15000 | 0 ºC | 6.4 ºC | 0 ºC | 5.1 ºC | – | 4100 ± 700 | 14700 ± 2300 | 62
